Reference: patent US9212204B2, “Treatment of rett syndrome using glycyl-L-2-methylprolyl-L-glutamic acid” (priority 2011, dated 2015)

Experiments:
[1] = Pharmacokinetics after intravenous bolus injection; format: in vivo, rat; conditions: 30 mg/kg single i.v. bolus; rat
Protocol: Adult male Wistar rats weighing between 180 and 240 g were used to determine the pharmacokinetics of GPE and […]. To facilitate intravenous bolus injections and blood sampling, all rats were surgically implanted with an indwelling jugular venous cannula under halothane anesthesia three days before the experiment. Groups of six rats were given a single intravenous bolus injection of either 30 mg/kg GPE or 10 mg/kg […] dissolved in 0.1M succinate buffer (pH 6.5). […] The samples were centrifuged at 3000 g for 15 min at 4° C. and the plasma removed and stored at -80° C. until extraction and assay by either radioimmunoassay (“RIA”) or reverse phase HPLC. The RIA and HPLC methods used were conventional. […] The k and half-life (t1/2) were calculated from the slope of the linear regression line in the elimination phase of the semi-logarithmic plot of plasma concentration versus time as: Log. C=-kt/2.3+log C0. Results were expressed as mean±standard error.

[2] = Degradation of GPE in vivo and in vitro
[3] = system: wild type young mice; conditions: Tropea et al., 2006; cited from earlier work
[4] = system: MeCP2 knock-out mice; conditions: U.S. Publication No. 2009/0099077; cited from earlier work
[5] = system: cortical neurons injured with okadaic acid; assay: Okadaic acid injury of cortical cultures, MTT survival; format: cell-based, rat; conditions: 10 μM, 24 hours incubation, MTT-assay
Protocol: One cortical hemisphere from a postnatal day 1 rat was used and collected into 4 ml of DMEM. Trituration was performed using a 5 ml glass pipette and an 18-gauge needle. The cell suspension was sieved through a 100 μm cell strainer and washed in 50 ml DMEM (centrifugation for 5 min at 250 g). The sediment was resuspended in 20 ml DMEM+10% fetal calf serum. The suspension was added into two […] flasks (10 ml per flask) and cultivated at 37° C. in the presence of 10% CO2 followed by a change of the medium twice a week. When cells reached confluence, they were washed three times with PBS, adjusted to Neurobasal/B27 and incubated for another 3 days. This supernatant was frozen for transient storage at −80° C. […]
The cells were triturated once with a glass Pasteur pipette in 1 ml of Neurobasal/B27 medium and subsequently twice by using a 1 ml insulin syringe with a 22 gauge needle. […] Cells were counted and adjusted to 50,000 cells per 60 μl. […]
To cause toxic injury to neurons, we exposed neurons to 1:100 parts of okadaic acid at concentrations of 30 nM or 100 nM and 0.5 mM 3-nitropropionic acid (for cerebellar microexplants only). […] The survival rate was determined by a colorimetric end-point MTT-assay at 595 nm in a multi-well plate reader. For the cerebellar microexplants four windows (field of 0.65 mm^2) with highest cell density were chosen and cells displaying neurite outgrowth were counted.

NCC(=O)N1CCC[C@H]1C(=O)N[C@@H](CCC(=O)O)C(=O)O [GPE, glycyl-L-prolyl-L-glutamic acid]
first order rate constant [1]: 0.15 ± 0.014 min⁻¹ | degradation [2]: rapidly degraded | OD plasticity [3]: reduce | effect on life span [4]: prolong life | effect on neuronal function [4]: increase neuronal function | neuroprotection [5]: 64%
